Key:
rat uterus = assay: Rat uterotrophic/antiuterotrophic test procedure; type: in vivo; conditions: for Uterine wet weight: daily ip, 4-day immature rat
Description: Rat Uterotrophic/Antiuterotrophic Test Procedure
The estrogenic and antiestrogenic properties of the compounds were determined in a 4-day immature rat uterotrophic assay (as described previously by L. J. Black and R. L. Goode, Life Sciences, 26, 1453 (1980)). Immature Sprague-Dawley rats (female, 18 days old) were tested in groups of six. […] On day 4 the animals were sacrificed by CO2 asphyxiation and their uteri were removed and stripped of excess lipid, any fluid removed and the wet weight determined. A small section of one horn was submitted for histology and the remainder used to isolate total RNA in order to evaluate complement component 3 gene expression.
Representative compounds of this invention were evaluated in the rat uterotrophic/antiuterotrophic assay to determine their in vivo effects on the rat uterus.

human estrogen receptor = target: T1, human estrogen receptor (Homo sapiens, UniProt P03372); assay: In vitro estrogen receptor binding test procedure ([3H]-17β-estradiol competition)
T1 construct: expressed in transfected cells; host or cells: Chinese Hamster ovary (CHO) cells; ribosome-free cytosol
T1 sequence (P03372 1-595): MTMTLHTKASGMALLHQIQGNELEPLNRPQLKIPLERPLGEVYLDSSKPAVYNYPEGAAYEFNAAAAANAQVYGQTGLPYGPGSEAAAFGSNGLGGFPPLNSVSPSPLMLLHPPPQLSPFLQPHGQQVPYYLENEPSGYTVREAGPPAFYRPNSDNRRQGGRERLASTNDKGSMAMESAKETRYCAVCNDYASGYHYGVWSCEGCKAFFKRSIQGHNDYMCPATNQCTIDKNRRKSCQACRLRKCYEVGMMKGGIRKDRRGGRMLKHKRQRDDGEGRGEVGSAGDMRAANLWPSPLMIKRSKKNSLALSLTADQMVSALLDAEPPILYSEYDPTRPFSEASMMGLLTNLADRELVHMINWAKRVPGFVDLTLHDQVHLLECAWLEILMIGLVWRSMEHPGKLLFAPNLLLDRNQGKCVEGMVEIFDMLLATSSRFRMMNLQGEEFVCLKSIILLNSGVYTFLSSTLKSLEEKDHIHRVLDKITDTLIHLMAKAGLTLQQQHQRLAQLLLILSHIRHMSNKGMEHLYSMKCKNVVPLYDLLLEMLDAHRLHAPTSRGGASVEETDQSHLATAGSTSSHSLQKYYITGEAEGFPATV
Description: In vitro Estrogen Receptor Binding Test Procedure
Chinese Hamster ovary (CHO) cells overexpressing the estrogen receptor were grown in […] dishes in DMEM+10% dextran coated charcoal, stripped fetal bovine serum. The plates were washed twice with PBS and once with 10 mM Tris-HCl, pH 7.4, 1 mM EDTA. Cells were harvested by scraping the surface and then the cell suspension was placed on ice. Cells were disrupted with a hand-held motorized tissue grinder using two, 10-second bursts. The crude preparation was centrifuged at 12,000 g for 20 minutes followed by a 60 minute spin at 100,000 G to produce a ribosome free cytosol. The cytosol was then frozen and stored at −80° C. Protein concentration of the cytosol was estimated using the BCA assay with reference standard protein.
Binding Test Procedure Conditions
100 uG/100 uL of the receptor preparation was aliquoted per well. […] The plate was incubated at room temperature for 2.5 h. At the end of this incubation period 150 uL of ice-cold dextran coated charcoal (5% activated charcoal coated with 0.05% 69K dextran) was added to each well and the plate was immediately centrifuged at 99 g for 5 minutes at 4° C. 200 uL of the supernatant solution was then removed for scintillation counting. Samples were counted to 2% or 10 minutes, whichever occurs first. […] Also, wells containing radioactivity but no cytosol were processed with charcoal to estimate unremovable DPM of [^3H] […] 96-well plates were used because they have proven to bind the least amount of estradiol.
Counts per minute (CPM) of radioactivity were automatically converted to disintegrated per minute (DPM) by the Beckman LS 7500 Scintillation Counter using a set of quenched standards to generate a H# for each sample. To calculate the % of estradiol binding in the presence of 100 or 500 fold competitor the following formula was applied:
((DPM sample−DPM not removed by charcoal/(DPM estradiol−DPM not removed by charcoal))×100%=% of estradiol binding
For the generation of IC50 curves, % binding is plotted vs compound. […] Values are reported as IC50 values. […] For a description of these methods, see Hulme, E. C., ed. 1992. Receptor-Ligand Interactions: A Practical Approach. IRL Press, New York.(see especially chapter 8).
Compounds were tested for their ability to displace estradiol in a human ER-receptor preparation as described above.

Ishikawa uterine cells = assay: Ishikawa cell alkaline phosphatase test procedure; type: cell-based, human; conditions: for Alkaline phosphatase activity, percent of response related to 1 nM 17β-estradiol: 48 h
Description: Ishikawa Cell Alkaline Phosphatase Test Procedure
Cell Maintenance and Treatment
Ishikawa cells were maintained in DMEM/F12 (50%:50%) containing phenol red+10% fetal bovine serum and the medium was supplemented with 2 mM Glutamax, 1% Pen/Strap and 1 mM sodium pyruvate. Five days prior to the beginning of each evaluation (treatment of cells) the medium was changed to phenol red-free DMEM/F12+10% dextran coated charcoal stripped serum. On the day before treatment, cells were harvested using 0.5% trypsin/EDTA and plated at a density of 5×10^4 cells/well in 96-well tissue culture plates. […] Cells were treated for 48 h prior to assay. […] Sample population for at each dose was n=8.
Alkaline Phosphatase Test Procedure
At the end of 48 h the media was aspirated and cells were washed three times with phosphate buffered saline (PBS); 50 μL of lysis buffer (0.1 M Tris-HCl, pH 9.8, 0.2% Triton X-100) was added to each well. Plates were placed at −80° C. for a minimum of 15 minutes. Plates were thawed at 37° C. followed by the addition of 150 μL of 0.1 M Tris-HCl, pH 9.8, containing 4 mM para-nitrophenylphosphate (pNPP) to each well (final concentration, 3 mM pNPP).
Absorbance and slope calculations were made using the KineticCalc Application program (Bio-Tek Instruments, Inc., Winooski, Vt.). Results are expressed as the mean +/−S.D. of the rate of enzyme reaction (slope) averaged over the linear portion of the kinetic reaction curve (optical density readings every 5 minutes for 30 minutes absorbance reading).
The four compounds were used as reference standards:
A description of these methods is described by Holinka, C. F., Hata, H., Kuramoto, H. and Gurpide, E. (1986) Effects of steroid hormones and antisteroids on alkaline phosphatase activity in human endometrial cancer cells (Ishikawa Line). Cancer Research, 46:2771-2774, and by Littlefield, B. A., Gurpide, E., Markiewicz, L., McKinley, B. and Hochberg, R. B. (1990) A simple and sensitive microtiter plate estrogen bioassay based on stimulation alkaline phosphatase in Ishikawa cells; Estrogen action of D5 adrenal steroids. Endocrinology, 6:2757-2762.

## CCCCN(C)C(=O)CCCCCCCCCCS[C@@H]1Cc2cc(O)ccc2[C@H]2CC[C@]3(C)[C@@H](O)CC[C@H]3[C@@H]21 [Example 18, (7α,17β) 7-[10-(N-Butyl-N-methyl-carbamoyl)-decyl]thio-estra-1,3,5(10)-triene-3,17-diol]
Rat uterus; 1 ug Cpd
  Uterine wet weight: 31.8 mg
Rat uterus; 1 ug E2 + 100 ug Cpd
  Uterine wet weight: 46.0 mg
Rat uterus; 100 ug Cpd
  Uterine wet weight: 41.6 mg
Rat uterus; in words, dosed alone or with 17β-estradiol
  Effect on rat uterus (agonist/antagonist): very efficacious antagonist
Human estrogen receptor
  IC50: 100 nM
Ishikawa uterine cells; 0.01 uM compound, agonist mode
  Alkaline phosphatase activity, percent of response related to 1 nM 17β-estradiol: 0%
Ishikawa uterine cells; 0.1 uM compound, agonist mode
  Alkaline phosphatase activity, percent of response related to 1 nM 17β-estradiol: 0%
Ishikawa uterine cells; 1 uM compound + 1 nM E2, antagonist mode
  Alkaline phosphatase activity, percent of response related to 1 nM 17β-estradiol: 1%
Ishikawa uterine cells; 1 uM compound, agonist mode
  Alkaline phosphatase activity, percent of response related to 1 nM 17β-estradiol: 0%
Ishikawa uterine cells; in words, from Table 2
  Behaviour in the uterine cell line (agonist/antagonist): pure estrogen antagonists
